The test system of series [1] is Non-Iron-Overloaded Rodents. Conditions: rats, po, 300 μmol/kg, historical data; cited from earlier work.
The subject of series [2] is Iron-Overloaded Cebus apella Primates. The note with it: Cebus apella, po, 150 μmol/kg, historical data; cited from earlier work.
For series [3] the following is noted: earlier preclinical studies; cited from earlier work.
The subject of series [4] is Non-Iron-Overloaded Rodents. As to the kind of experiment: Chelator-induced iron clearance in non-iron-overloaded, bile duct-cannulated rats. It is filed as in vivo, rat (male Sprague-Dawley). The note with it: po, 300 μmol/kg; for ICE of the polyether relative to that of the parent ligand: 1 vs 3, 4 vs 6, 7 vs 9. An excerpt:
Chelator-Induced Iron Clearance in Non-Iron-Overloaded Rodents. […] J. Med. Chem. 2006, 49, 2772-2783]. Recall that iron-clearing efficiency (ICE) is defined as (net iron excretion)/(total iron-binding capacity of the chelator), expressed as a percent. The relative ICE values of compounds 1 and 2 were in keeping with their log Papp values: the more lipophilic, the larger log Papp, the more efficient the chelator. […] However, the ICE trend was in keeping with the biliary ferrokinetics (FIG. 3) and liver concentration of the chelators, for example, 3>1 (FIG. 4).
Cannulation of Bile Duct in Non-Iron-Overloaded Rats has been described previously. […]. […] The urine sample(s) was taken at 24 h intervals. Sample collection and handling are as previously described [Bergeron, R. J., Streiff, R. R., Creary, E. A., Daniels, R. D., Jr., King, W., Luchetta, G., Wiegand, J., Moerker, T. and Peter, H. H. A Comparative Study of the Iron-Clearing Properties of Desferrithiocin Analogues with Desferrioxamine B in a Cebus Monkey Model. Blood 1993, 81, 2166-2173; Bergeron, R. J., Streiff, R. R., Wiegand, J., Vinson, J. R. T., Luchetta, G., Evans, K. M., Peter, H. and Jenny, H.-B. A Comparative Evaluation of Iron Clearance Models. Ann. N.Y. Acad. Sci. 1990, 612, 378-393].
(§1) In the iron-clearing experiments, the rats were given a single 300 μmol/kg dose of drugs 1-9 orally (po).
(§2) J. Med. Chem. 1999, 42, 2432-2440].

A short description of series [5]: Chelator tissue distribution in rodents. It is filed as in vivo, rat (male Sprague-Dawley). The note with it: rats, sc, 300 μmol/kg; for concentration at 0.5 h: male, Sprague-Dawley, rat, plasma. How it is done: Collection of Tissue Distribution Samples from Rodents: Male Sprague-Dawley rats (250-350 g) were given a single sc injection of the monosodium salts of 6 and 9 prepared as described above at a dose of 300 μmol/kg. At times 0.5, 1, 2, and 4 h after dosing (n=3 rats per time point) the animals were euthanized by exposure to CO2 gas. Blood was obtained via cardiac puncture into vacutainers containing sodium citrate. The blood was centrifuged, and the plasma was separated for analysis. The liver, heart, kidneys, and pancreas were then removed from the animals. […] J. Med. Chem. 2006, 49, 2772-2783]. In the current study, tissues from the (S)-3′-(HO)-DADFT-PE (9) and (S)-5′-(HO)-DADFT-PE (6) treated rats were prepared for HPLC analysis by homogenizing them in 0.5 N HClO4 at a ratio of 1:3 (w/v). Then, as a rinse, CH3OH at a ratio of 1:3 (w/v) was added and the mixture was stored at −20° C. for 30 min. This homogenate was centrifuged. The supernatant was diluted with mobile phase A (95% buffer [25 mM KH2PO4, pH 3.0]/5% CH3CN), vortexed, and filtered with a 0.2 μm membrane. Analytical separation was performed on a Discovery RP Amide C16 HPLC system with UV detection at 310 nm as described previously [Bergeron, R. J., Wiegand, J., Weimar, W. R., McManis, J. S., Smith, R. E. and Abboud, K. A. Iron Chelation Promoted by Desazadesferrithiocin Analogues: An Enantioselective Barrier. Chirality 2003, 15, 593-599; Bergeron, R. J., Wiegand, J., Ratliff-Thompson, K. and Weimar, W. R. The Origin of the Differences in (R)- and (S)-Desmethyldesferrithiocin: Iron-Clearing Properties. Ann. N.Y. Acad. Sci. 1998, 850, 202-216]. Mobile phase and chromatographic conditions were as follows: solvent A, 5% CH3CN/95% buffer; solvent B, 60% CH3CN/40% buffer. The concentrations were calculated from the peak area fitted to calibration curves by nonweighted least-squares linear regression with Rainin Dynamax HPLC Method Manager software (Rainin Instrument Co.).

Series [6] deals with Iron-Overloaded Cebus apella Primates. As to the kind of experiment: Chelator-induced iron clearance in iron-overloaded Cebus apella primates. It counts as in vivo. Conditions: po, 75 μmol/kg.
Description: Chelator-Induced Iron Clearance in Iron-Overloaded Cebus apella Primates. The iron-clearance data for all three sets of ligands are presented (Table 2). […] J. Med. Chem. 2003, 46, 1470-1477]>1 (16.8±7.2%) [Bergeron, R. J., Wiegand, J., McManis, J. S., McCosar, B. H., Weimar, W. R., Brittenham, G. M. and Smith, R. E. Effects of C-4 Stereochemistry and C-4′ Hydroxylation on the Iron Clearing Efficiency and Toxicity of Desferrithiocin Analogues. J. Med. Chem. 1999, 42, 2432-2440], the increase is not significant. Although (S)-4′-(HO)-DADFT-PE (3) is the least lipophilic chelator in the 1-3 series, it is just as efficient (ICE, 25.4±7.4%) [Bergeron, R. J., Wiegand, J., McManis, J. S., Vinson, J. R. T., Yao, H., Bharti, N. and Rocca, J. R. (S)-4,5-Dihydro-2-(2-hydroxy-4-hydroxyphenyl)-4-methyl-4-thiazolecarboxylic Acid Polyethers: A Solution to Nephrotoxicity.
The monkeys (3.5-4 kg) were iron overloaded with intravenous iron dextran as specified in earlier publications to provide about 500 mg of iron per kg of body weight [Bergeron, R. J., Streiff, R. R., Wiegand, J., Luchetta, G., Creary, E. A. and Peter, H. H. A Comparison of the Iron-Clearing Properties of 1,2-Dimethyl-3-hydroxypyrid-4-one, 1,2-Diethyl-3-hydroxypyrid-4-one, and Deferoxamine. Blood 1992, 79, 1882-1890]; the serum transferrin iron saturation rose to between 70 and 80%. At least 20 half-lives, 60 d [Wood, J. K., Milner, P. F. and Pathak, U. N. The Metabolism of Iron-dextran Given as a Total-dose Infusion to Iron Deficient Jamaican Subjects. Br. J. Haematol. 1968, 14, 119-129], elapsed before any of the animals were used in experiments evaluating iron-chelating agents.
Fecal and urine samples were collected at 24-h intervals and processed as described previously [Bergeron, R. J., Streiff, R. R., Creary, E. A., Daniels, R. D., Jr., King, W., Luchetta, G., Wiegand, J., Moerker, T. and Peter, H. H. A Comparative Study of the Iron-Clearing Properties of Desferrithiocin Analogues with Desferrioxamine B in a Cebus Monkey Model. Blood 1993, 81, 2166-2173; Bergeron, R. J., Streiff, R. R., Wiegand, J., Vinson, J. R. T., Luchetta, G., Evans, K. M., Peter, H. and Jenny, H.-B. A Comparative Evaluation of Iron Clearance Models. Ann. N.Y. Acad. Sci. 1990, 612, 378-393; Bergeron, R. J., Wiegand, J. and Brittenham, G. M. HBED: A Potential Alternative to Deferoxamine for Iron-Chelating Therapy. Blood 1998, 91, 1446-1452]. Briefly, the collections began 4 d prior to the administration of the test drug and continued for an additional 5 d after the drug was given. Iron concentrations were determined by flame atomic absorption spectroscopy as presented in other publications [Bergeron, R. J., Streiff, R. R., Wiegand, J., Vinson, J. R. T., Luchetta, G., Evans, K. M., Peter, H. and Jenny, H.-B. A Comparative Evaluation of Iron Clearance Models. Ann. N.Y. Acad. Sci. 1990, 612, 378-393; Bergeron, R. J., Wiegand, J., Wollenweber, M., McManis, J. S., Algee, S. E. and Ratliff-Thompson, K. Synthesis and Biological Evaluation of Naphthyldesferrithiocin Iron Chelators. J. Med. Chem. 1996, 39, 1575-1581].
as §1, §2

A short description of series [7]: Iron clearance performance ratio in primates versus rodents. The note with it: mean ICE primates / mean ICE rodents. It counts as in vivo, Cebus apella / rat. From the text: Iron Clearance Performance Ratio in Primates versus Rodents. The performance ratio (PR), defined as the mean ICEprimates/ICErodents, is noteworthy (Table 3). […] The mean ICE for the primate group can be compared with the mean ICE of the rodent group (Table 3). […] This is not the case with the 5′-polyether (6), whose ICE is virtually identical in the two species. The largest differences in performance ratios generally unfold with the parent ligands 1, 4, and 7.

Where two headings read alike, the source gives them in different places.

The values below come from US9174948B2, “Desferrithiocin polyether analogues” (University of Florida Research Foundation, Inc., priority 2007, dated 2015).

As to `COc1ccc(C2=N[C@@](C)(C(=O)O)CS2)c(O)c1` [Compound 2, (S)-4,5-dihydro-2-(2-hydroxy-4-methoxyphenyl)-4-methyl-4-thiazolecarboxylic acid], the results for the “Iron-Clearing Efficiency (%)” value in series [1] and in series [2] were 6.6±2.8% and 24.4±10.8%, respectively. For the same molecule, the “toxicity / nephrotoxicity in words” value in series [3] is “unacceptably toxic”.
For the molecule `COCCOCCOCCOc1ccc(O)c(C2=N[C@@](C)(C(=O)O)CS2)c1` [Compound 6, (S)-4,5-dihydro-2-[2-hydroxy-5-(3,6,9-trioxadecyloxy)phenyl]-4-methyl-4-thiazolecarboxylic acid], in series [4], the “Iron-Clearing Efficiency (%)” value is on record as 8.0±1.8%; the “ICE of the polyether relative to that of the parent ligand” value is 800%; the “relative percentages of the iron excreted in the bile and urine” value is 98/2. For the same molecule, in series [5] (0.5 h), the concentration at 0.5 h came out at 324 ± 20 µM, the kidney concentration is reported as 643±92 nmol/g wet weight and the liver concentration is on record as 483±85 nmol/g wet weight. For the same molecule, the “decrease of liver concentration from 0.5 h to 1 h” value in series [5] is 36%. For the same molecule, in series [5] (1 h), the “drop in plasma concentration relative to 0.5 h” value was determined as 39% and the kidney concentration came out at 435±111 nmol/g wet weight. In series [5] (2 h), the “drop in plasma concentration relative to 0.5 h” value worked out at 54%, the kidney concentration is recorded as 321±20 nmol/g wet weight and the pancreas concentration result is “≈ 30 nmol/g wet weight”. Also, in series [5] (4 h), the “drop in plasma concentration relative to 0.5 h” value is 82% and the kidney concentration is 116±65 nmol/g wet weight. Also, in series [6], the “Iron-Clearing Efficiency (%)” value came to 8.1±2.8%; the “relative percentages of the iron excreted in the stool and urine” value is 56/44.
On to `COCCOCCOCCOc1cccc(C2=N[C@@](C)(C(=O)O)CS2)c1O` [Compound 9, (S)-4,5-dihydro-2-[2-hydroxy-3-(3,6,9-trioxadecyloxy)phenyl]-4-methyl-4-thiazolecarboxylic acid], for which, in series [4], the “ICE of 3′-polyether relative to 4′-polyether (3), more effective” value is given as roughly 200% and the “ICE of the polyether relative to that of the parent ligand” value was 230%. In series [4] (48 h sample collection period), the “Iron-Clearing Efficiency (%)” value came to 10.6±4.4%; the “relative percentages of the iron excreted in the bile and urine” value is on record as 95/5. In series [5] (0.5 h), the concentration at 0.5 h stood at 62 ± 24 µM, the kidney concentration is reported as 280±26 nmol/g wet weight and the liver concentration amounted to 242±38 nmol/g wet weight. Further, in series [5] (1 h), the “drop in plasma concentration relative to 0.5 h” value is on record as 26%, the kidney concentration turned out to be 259±35 nmol/g wet weight and the liver concentration came out at 318±46 nmol/g wet weight. Besides, in series [5] (2 h), the “drop in plasma concentration relative to 0.5 h” value was 61%, the kidney concentration is on record as 145±27 nmol/g wet weight and the pancreas concentration is reported as 16 nmol/g wet weight. Also, in series [5] (4 h), the “drop in plasma concentration relative to 0.5 h” value is given as 79% and the kidney concentration was determined as 90±7 nmol/g wet weight. Moreover, in series [6], the “Iron-Clearing Efficiency (%)” value was found to be 24.5±7.6%; the “relative percentages of the iron excreted in the stool and urine” value is 72/28.
For `C[C@]1(C(=O)O)CSC(c2cc(O)ccc2O)=N1` [drawing 24], the “ICE Primate/ICE Rodent (performance ratio)” value in series [7] is 12.6.
On to `COc1ccc(O)c(C2=N[C@@](C)(C(=O)O)CS2)c1` [drawing 25], for which the “ICE Primate/ICE Rodent (performance ratio)” value in series [7] stood at 3.0.
On the same count and under the same terms, to `COCCOCCOCCOc1ccc(O)c(C2=N[C@@](C)(C(=O)O)CS2)c1` [drawing 26] belongs 1.0; to `C[C@]1(C(=O)O)CSC(c2cccc(O)c2O)=N1` [drawing 27], 5.0; to `COc1cccc(C2=N[C@@](C)(C(=O)O)CS2)c1O` [drawing 28], 1.8.
On the same count and under the same terms, as for `COCCOCCOCCOc1cccc(C2=N[C@@](C)(C(=O)O)CS2)c1O` [drawing 29], the figure is 2.3.
